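Step 1: Grow cells in 96-well plates. Step 2: Expose to compound for 48 hours at 5 concentrations. Step 3: Interpolate endpoints linearly; if unreached, use highest concentration. GI50 marks 50% less growth.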 Calls of active or inactive are those of the source. Rule as the data show it: active = GI50 up to about 1.1 µM and inactive = higher.
Assays:
Assay in all cases: growth of human tumour cells (NCI), 48 h
HOP-92 = tested on: HOP-92
SNB-19 = tested on: SNB-19
NCI-H23 = tested on: NCI-H23
KM12 = tested on: KM12
SNB-75 = tested on: SNB-75
TK-10 = tested on: TK-10
SK-MEL-5 = tested on: SK-MEL-5
A498 = tested on: A498
PC-3 = tested on: PC-3
T47D = tested on: T47D
UACC-257 = tested on: UACC-257
HCT-116 = tested on: HCT-116
RXF 393 = tested on: RXF 393
SR = tested on: SR
LOX IMVI = tested on: LOX IMVI
OVCAR-8 = tested on: OVCAR-8
SK-OV-3 = tested on: SK-OV-3
HT-29 = tested on: HT-29
NCI-H522 = tested on: NCI-H522
DU-145 = tested on: DU-145
SK-MEL-28 = tested on: SK-MEL-28
COLO 205 = tested on: COLO 205
BT-549 = tested on: BT-549
SN12C = tested on: SN12C
M14 = tested on: M14
SF-295 = tested on: SF-295
U-251 = tested on: U-251
SK-MEL-2 = tested on: SK-MEL-2
SF-539 = tested on: SF-539
MDA-N = tested on: MDA-N
CCRF-CEM = tested on: CCRF-CEM
EKVX = tested on: EKVX
UACC-62 = tested on: UACC-62
786-0 = tested on: 786-0
MCF7 = tested on: MCF7
NCI-H460 = tested on: NCI-H460
NCI/ADR-RES = tested on: NCI/ADR-RES
CAKI-1 = tested on: CAKI-1
Hs-578T = tested on: Hs-578T
SF-268 = tested on: SF-268
ACHN = tested on: ACHN
HCC 2998 = tested on: HCC 2998
HOP-62 = tested on: HOP-62
OVCAR-3 = tested on: OVCAR-3
MDA-MB-435 = tested on: MDA-MB-435
OVCAR-5 = tested on: OVCAR-5
HCT-15 = tested on: HCT-15
K562 = tested on: K562
MDA-MB-231 = tested on: MDA-MB-231
SW-620 = tested on: SW-620
UO-31 = tested on: UO-31
A549 = tested on: A549
HL-60 = tested on: HL-60
RPMI-8226 = tested on: RPMI-8226
IGROV-1 = tested on: IGROV-1
Malme-3M = tested on: Malme-3M
MOLT-4 = tested on: MOLT-4
NCI-H226 = tested on: NCI-H226
OVCAR-4 = tested on: OVCAR-4

Measured: GI50

CN(CC(=O)O)c1ccc(/C=C/c2ccnc3ccccc23)cc1
31.9 µM: HCT-15
inactive: HOP-92 22.9 µM | SNB-19 30.1 µM | NCI-H23 33.3 µM | KM12 13.2 µM | SNB-75 24.8 µM | TK-10 19.7 µM | SK-MEL-5 16 µM | A498 17.1 µM | PC-3 27.4 µM | T47D 20.2 µM | UACC-257 25.4 µM | HCT-116 23.8 µM | RXF 393 14.8 µM | SR 6.93 µM | LOX IMVI 22.3 µM | OVCAR-8 27.7 µM | SK-OV-3 28.9 µM | HT-29 23 µM | NCI-H522 5.47 µM | DU-145 33.6 µM | SK-MEL-28 40 µM | COLO 205 16 µM | BT-549 16.3 µM | SN12C 25.5 µM | M14 22.2 µM | SF-295 18.1 µM | U-251 22.8 µM | SK-MEL-2 18.8 µM | SF-539 27.9 µM | MDA-N 12.5 µM | CCRF-CEM 13.8 µM | EKVX 4.47 µM | UACC-62 19.6 µM | 786-0 28.1 µM | MCF7 5.02 µM | NCI-H460 21.4 µM | NCI/ADR-RES 29.2 µM | CAKI-1 18.5 µM | Hs-578T 25.4 µM | SF-268 19.1 µM | ACHN 34.4 µM | HCC 2998 25.4 µM | HOP-62 31.3 µM | OVCAR-3 27.9 µM | MDA-MB-435 14.1 µM | OVCAR-5 29.2 µM | K562 23.7 µM | MDA-MB-231 27 µM | SW-620 29.4 µM | UO-31 15.7 µM | A549 17.5 µM | HL-60 11.4 µM | RPMI-8226 13.3 µM | IGROV-1 13.9 µM

O=C(CN1CCN(Cc2ccccc2)CC1)N1CCCn2c1nc1ccccc1c2=O
inactive: HOP-92 4.58 µM | SNB-19 > 100 µM | NCI-H23 > 100 µM | KM12 > 100 µM | SNB-75 > 100 µM | TK-10 > 100 µM | SK-MEL-5 > 100 µM | A498 > 100 µM | PC-3 > 100 µM | T47D > 100 µM | UACC-257 > 100 µM | HCT-116 > 100 µM | SR > 100 µM | LOX IMVI > 100 µM | OVCAR-8 > 100 µM | SK-OV-3 > 100 µM | Malme-3M > 100 µM | HT-29 > 100 µM | NCI-H522 > 100 µM | DU-145 > 100 µM | COLO 205 > 100 µM | BT-549 > 100 µM | SN12C > 100 µM | M14 > 100 µM | SF-295 > 100 µM | U-251 > 100 µM | SK-MEL-2 > 100 µM | SF-539 > 100 µM | MDA-N > 100 µM | CCRF-CEM > 100 µM | EKVX > 100 µM | UACC-62 > 100 µM | MOLT-4 > 100 µM | 786-0 > 100 µM | MCF7 > 100 µM | NCI-H460 > 100 µM | NCI/ADR-RES > 100 µM | CAKI-1 > 100 µM | Hs-578T > 100 µM | SF-268 > 100 µM | ACHN > 100 µM | NCI-H226 29.2 µM | HCC 2998 > 100 µM | HOP-62 > 100 µM | OVCAR-3 > 100 µM | MDA-MB-435 > 100 µM | OVCAR-5 > 100 µM | K562 > 100 µM | MDA-MB-231 > 100 µM | SW-620 > 100 µM | OVCAR-4 > 100 µM | UO-31 > 100 µM | A549 > 100 µM | HL-60 > 100 µM | RPMI-8226 > 100 µM | IGROV-1 > 100 µM
> 100 µM: HCT-15

Clc1ccc(-c2cc(-c3nc4ccccc4[nH]3)no2)cc1
inactive: HOP-92 33.7 µM | SNB-19 19.6 µM | NCI-H23 18.9 µM | KM12 20.8 µM | SNB-75 18.3 µM | TK-10 21.9 µM | SK-MEL-5 17.7 µM | A498 18.9 µM | PC-3 23.3 µM | T47D 11.7 µM | UACC-257 18.8 µM | HCT-116 16.6 µM | SR 21.4 µM | LOX IMVI 19.5 µM | OVCAR-8 33.8 µM | SK-OV-3 18.6 µM | Malme-3M 19.3 µM | HT-29 18.2 µM | NCI-H522 19.2 µM | DU-145 11.4 µM | SK-MEL-28 19.3 µM | COLO 205 20 µM | BT-549 21.6 µM | SN12C 18.6 µM | M14 18.4 µM | SF-295 17.3 µM | SK-MEL-2 18.7 µM | SF-539 23.9 µM | MDA-N 17.5 µM | CCRF-CEM 18.7 µM | EKVX 16.9 µM | UACC-62 14.6 µM | MOLT-4 16.1 µM | 786-0 24.3 µM | MCF7 15 µM | NCI-H460 16.9 µM | NCI/ADR-RES 23.6 µM | CAKI-1 18.3 µM | Hs-578T 29.6 µM | SF-268 21.3 µM | ACHN 17.4 µM | NCI-H226 27.4 µM | HCC 2998 18.6 µM | HOP-62 19.5 µM | OVCAR-3 18.5 µM | MDA-MB-435 17 µM | OVCAR-5 18.7 µM | K562 19.8 µM | MDA-MB-231 18.6 µM | SW-620 22.4 µM | OVCAR-4 17.7 µM | UO-31 19 µM | A549 19.1 µM | HL-60 7.4 µM | RPMI-8226 24.3 µM | IGROV-1 22.6 µM
19.6 µM: HCT-15

Reference: ChEMBL document CHEMBL1201862, “PubChem BioAssay data set” (2004)
